Results on two molecules are retold here after patent publication US12016862B2, “Methods and compositions comprising a KRasG12C inhibitor and a VEGF inhibitor for treating solid tumors” (Genentech, Inc., priority 2020, dated 2024).

For series [1] the following is noted: bevacizumab; cited from earlier work.
The test system of series [2] is NCI-H2122 (KRAS^G12C) NSCLC xenograft. Put plainly: Anti-tumor efficacy in NCI-H2122 NSCLC xenograft tumor model. The series is classed as in vivo, nude mice. As for the experimental part:
Anti-VEGFA 620.4.1.1 (Mu anti-VEGFA 620.4.1.1; hereafter referred to as anti-VEGF) was a solution in Histidine Buffer ([…], 0.02% Tween 20™, pH5.5). […] The anti-gD isotype control (Hu anti-gD 5B6; hereafter referred to as Isotype Control) was a solution in saline. […] The mice were housed in standard rodent micro-isolator cages and were acclimated to study conditions at least 3 days before tumor cell implantation. Only animals that appeared to be healthy and that were free of obvious abnormalities were used for the study. Human non-small lung carcinoma NCI-H2122 cells were obtained from the American Type Culture Collection (Rockville, MD) and harbor a G12C oncogenic mutation in K-RAS. […] Mice were distributed into four groups based on tumor volumes with n=10 mice per group. […] The isotope control and anti-VEGF antibodies were administered intravenously (IV) at 10 mg/kg for the first dose, and then dosed intraperitoneally (IP) at 5 mg/kg for subsequent doses on a twice weekly (BIW) schedule. Tumor sizes and mouse body weights were recorded twice weekly over the course of the study. […] Fred V. Fowler Co.; Newton, MA) and analyzed using Excel, version 14.2.5 (Microsoft Corporation; Redmond WA). […] A generalized additive mixed model (GAMM) was employed to analyze transformed tumor volumes over time as this approach addresses both repeated measurements from the same study subjects and modest dropouts before study end (Lin et al. Wiley Online Library; 1999; 61:381-400 and Liang Biometrical Journal. Wiley Online Library; 2005; 47:358-68). […] Estimates of efficacy were obtained by calculating the percent difference between the daily average baseline-corrected AUC of the relevant group fits on the original (i.e., untransformed) scale over a common time period.

A short description of series [3]: Risks associated with administration of study drugs. The class given is in vivo. The following applies: Compound 1. From the text: Risks Associated with Compound 1.
Risks Associated with Bevacizumab.

Series [4] relates to KRAS^G12C-positive cancer cell lines. Put plainly: Growth inhibition of KRAS^G12C-positive versus KRAS^G12C-negative cancer cell lines. The series is classed as cell-based.
The mark [5] stands for this setting: number of mice of n=10, same dosing, 21 days.

Values joined by “and” are separate entries in the source; they are usually repeats but may differ in a detail not shown here. Equal values may be shown once. Read-outs that look alike come from different tables or passages of the source.

Regarding “Bevacizumab: recombinant humanized anti-VEGF monoclonal antibody generated according to Presta et al.”, the “risks associated with administration” value in series [1] was “gastrointestinal perforations, surgery and wound healing complications, hemorrhage”.
For `C=CC(=O)N1CCN(c2nc(OC[C@@H]3CCCN3C)nc3c(F)c(-c4nc(N)cc(C)c4C(F)(F)F)c(Cl)cc23)[C@@H](C)C1` (atropisomer, axis not shown) [Compound 1], the “% TGI (estimated)” value in series [2] (NCI-H2122 xenografts in nude mice, n=10, Compound 1 50 mg/kg PO QD, anti-VEGF 10 mg/kg IV first dose then 5 mg/kg IP BIW, 21 days, based on AUC, relative to vehicle controls) is 98%. Further, in series [2] (initial tumor response, n=10 per group), the “mice showing reductions in initial tumor size” value was found to be 50%. For the same molecule, the “TI (tumor incidence)” value in series [2] (n=10 per group, same dosing, 21 days) is on record as 10/10. In addition, in series [2] (setting [5]), the “CR (complete responses, 100% decrease in tumor volume)” value turned out to be 0; the “PR (partial responses, >50% decrease from the initial tumor volume)” value is 2/10 and 2. The “anti-tumor effect in words” value in series [2] (single agent treatment) is “tumor stasis”. In addition, in series [2] (within the first week of treatment, of 10 mice), the “mice showing increases in tumor volume” value was 5/10. In addition, the “risks associated with administration” value in series [3] was “diarrhea, nausea, vomiting, oral mucosal irritation, minimal to mild transaminase elevation, and phototoxicity”. In addition, in series [4], the “selectivity in growth inhibition for KRAS^G12C-positive over KRAS^G12C-negative cancer cell lines” value is on record as “over 20,000 fold”.
